This note sets out measurements from patent US20230303540A1 (Merck Sharp & Dohme LLC, priority 2020, published 2023).

In this experiment the target is GST-tagged truncated human mutant G2019S LRRK2 (Homo sapiens, UniProt Q5S007, G2019S). Description: LRRK2 G2019S Km ATP LanthaScreen assay. The format is biochemical. The settings on record: 134 μM ATP (Km ATP), LRRKtide substrate, mean IC50 values; read-out: LRRK2 pIC50 (converted). Here is the method: Unless otherwise noted, all reactions are magnetically stirred. Unless otherwise noted, when diethyl ether is used in the experiments described below, it is Fisher ACS certified material and is stabilized with BHT. Unless otherwise noted, “concentrated” and/or “solvent removed under reduced pressure” means evaporating the solvent from a solution or mixture using a rotary evaporator or vacuum pump. Unless otherwise noted, flash chromatography is carried out on a Teledyne Isco (Lincoln, NE), Analogix (Burlington, WI), or Biotage (Stockholm, SWE) automated chromatography system using a commercially available cartridge as the column. Columns may be purchased from Teledyne Isco, Analogix, Biotage, Varian (Palo Alto, CA), or Supelco (Bellefonte, PA) and are usually filled with silica gel as the stationary phase. Reverse phase prep-HPLC conditions, where used, can be found at the end of each experimental section. Aqueous solutions were concentrated on a Genevac (Ipswich, ENG) or by freeze-drying/lyophilization. Unless otherwise noted, all LRRK2 pIC50 data presented in tables refers to the LRRK2 G2019S Km ATP LanthaScreen™ assay (Life Technologies Corp., Carlsbad, CA) that is described in the Biological Assay section.
The IC50 values reported herein were measured as follows.
Biological Assay: LRRK2 Km ATP LanthaScreen™ Assay
The LRRK2 kinase activity reported herein as IC50 values was determined with LanthaScreen™ technology from Life Technologies Corporation (Carlsbad, CA) using GST-tagged truncated human mutant G2019S LRRK2 in the presence of the fluorescein-labeled peptide substrate LRRKtide, also from Life Technologies. The data presented for the Km ATP LanthaScreen™ Assay represents mean IC50 values based on several test results and may have reasonable deviations depending on the specific conditions and reagents used. Assays were performed in the presence of 134 μM ATP (Km ATP). Upon completion, the assay was stopped and phosphorylated substrate detected with a terbium (Tb)-labeled anti-pERM antibody (cat. no. PV4898). The compound dose response was prepared by diluting a 10 mM stock of compound to a maximum concentration of 9.99 μM in 100% dimethylsulfoxide followed by custom fold serial dilution in dimethylsulfoxide nine times. Twenty nanoliters of each dilution was spotted via a Labcyte Echo onto a 384-well black-sided plate (Corning 3575) followed by 15 μl of a 1.25 nM enzyme solution in 1× assay buffer (50 mM Tris pH 8.5, 10 mM MgCl2, 0.01% Brij-35, 1 mM EGTA, 2 mM dithiothreitol, 0.05 mM sodium orthovanadate). Following a 15-minute incubation at room temperature, the kinase reaction was started with the addition of 5 μl of 400 nM fluorescein-labeled LRRKtide peptide substrate and 134 μM ATP solution in 1× assay buffer. The reaction was allowed to progress at ambient temperature for 90 minutes. The reaction was then stopped by the addition of 20 μl of TR-FRET Dilution Buffer (Life Technologies, Carlsbad, CA) containing 2 nM Tb-labeled anti-phospho LRRKtide antibody and 10 mM EDTA (Life Technologies, Carlsbad, CA). After an incubation of 1 hour at room temperature, the plate was read on an EnVision multimode plate reader (Perkin Elmer, Waltham, MA) with an excitation wavelength of 337 nm (Laser) and a reading emission at both 520 and 495 nm. Compound IC50s were interpolated from nonlinear regression best fits of the log of the final compound concentration, plotted as a function of the 520/495-nm emission ratio using Activity base. Abase uses a 4 parameter (4P) logistic fit based on the Levenberg-Marquardt algorithm.
Consider `CC1(N2CCN(c3cc4nc(Nc5cnn(C6CCC6)c5Cl)ncc4cc3Cl)CC2)COC1` [Ex-4.50, 6-chloro-N-(5-chloro-1-cyclobutyl-1H-pyrazol-4-yl)-7-[4-(3-methyloxetan-3-yl)piperazin-1-yl]quinazolin-2-amine], for which the IC50 is 4.61 nM.
With `CC1(O)CCN(c2cc3nc(Nc4cnn(C5CC5)c4Cl)ncc3cc2Cl)C1` (stereo not drawn) [Ex-1.38, 1-{6-chloro-2-[(5-chloro-1-cyclopropyl-1H-pyrazol-4-yl)amino]quinazolin-7-yl}-3-methylpyrrolidin-3-ol], the IC50 is 9.77 nM.
Consider `C[C@]1(O)[C@@H]2CC[C@H]1CN(c1cc3nc(Nc4cnn(C5CC5)c4Cl)ncc3cc1Cl)C2` [Ex-1.40, (8-syn)-3-{6-chloro-2-[(5-chloro-1-cyclopropyl-1H-pyrazol-4-yl)amino]quinazolin-7-yl}-8-methyl-3-azabicyclo[3.2.1]octan-8-ol], for which the IC50 is 11.2 nM.
In the case of `Cn1nc(Cl)cc1Nc1ncc2cc(Cl)c(N3CCN([C@@]4(C)COC[C@H]4O)CC3)cc2n1` (single isomer, unassigned), the IC50 is 5.97 nM.
With `Cc1c(Nc2ncc3cc(Cl)c(N4CCC(C)(O)CC4)cc3n2)cnn1C1CC1` [Ex-6.4, 1-{6-chloro-2-[(1-cyclopropyl-5-methyl-1H-pyrazol-4-yl)amino}quinazolin-7-yl}-4-methylpiperidin-4-ol] the figure was 1.92 nM; with `Cc1c(Nc2ncc3ccc(N4C(=O)OCC4C4CC4)cc3n2)cnn1C1CCOCC1` (single isomer, unassigned) [Ex-7.14, (R) or (S) 4-cyclopropyl-3-(2-{[5-methyl-1-(oxan-4-yl)-1H-pyrazol-4-yl]amino}quinazolin-7-yl)-1,3-oxazolidin-2-one], 0.749 nM; with `Cc1cc2cnc(Nc3cnn(C45CC(C4)C5)c3Cl)nc2cc1N1CCN(C2COCC2O)CC1` (single isomer, unassigned) [Ex-5.13, (3S,4S) or (3R,4R) 4-(4-(2-((1-(bicyclo[1.1.1]pentan-1-yl)-5-chloro-1H-pyrazol-4-yl)amino)-6-methylquinazolin-7-yl)piperazin-1-yl)tetrahydrofuran-3-ol], 1.05 nM.
Then `CCn1ncc(Nc2ncc3cc(Cl)c(N4CCC(C)(O)CC4)cc3n2)c1F` [Ex-6.3, 1-{6-chloro-2-[(1-ethyl-5-fluoro-1H-pyrazol-4-yl)amino]quinazolin-7-yl}-4-methylpiperidin-4-ol], with 10.3 nM; and `CCn1ncc(Nc2ncc3cc(Cl)c(N4CCN(C5(C)COC5)CC4)cc3n2)c1Cl` [Ex-4.68, 6-chloro-N-(5-chloro-1-ethyl-1H-pyrazol-4-yl)-7-[4-(3-methyloxetan-3-yl)piperazin-1-yl]quinazolin-2-amine], with 3.38 nM; and `CC1(N2CCN(c3cc4nc(Nc5cnn(CC6CCC6)c5Cl)ncc4cc3Cl)CC2)COC1` [Ex-4.54, 6-chloro-N-[5-chloro-1-(cyclobutylmethyl)-1H-pyrazol-4-yl]-7-[4-(3-methyloxetan-3-yl)piperazin-1-yl]quinazolin-2-amine], with 2.87 nM.
As for `Cc1c(Nc2ncc3cc(Cl)c(N4CCN(C5(C)COCC5O)CC4)cc3n2)cnn1C1CC1(F)F` (single isomer, unassigned) [Ex-6.41, (3S,4S) or (3R,4R) 4-[4-(6-chloro-2-{[1-(2,2-(R) or (S)difluorocyclopropyl)-5-methyl-1H-pyrazol-4-yl]amino}quinazolin-7-yl)piperazin-1-yl]-4-methyloxolan-3-ol], the IC50 is 32.9 nM.
Then `Clc1cc2cnc(Nc3cnn(C4CC4)c3Cl)nc2cc1N1CCC(N2CCCC2)CC1` [Ex-1.44, 6-chloro-N-(5-chloro-1-cyclopropyl-1H-pyrazol-4-yl)-7-[4-(pyrrolidin-1-yl)piperidin-1-yl]quinazolin-2-amine], with 22.3 nM; and `OC1CN(C2CCN(c3cc4nc(Nc5cnn(CC(F)F)c5Cl)ncc4cc3Cl)CC2)C1` [Ex-1.22, 1-[1-(6-chloro-2-{[5-chloro-1-(2,2-difluoroethyl)-1H-pyrazol-4-yl]amino}quinazolin-7-yl)piperidin-4-yl]azetidin-3-ol], with 6.94 nM; and `CCn1ncc(Nc2ncc3ccc(N4CCCC4C)cc3n2)c1C` (single isomer, unassigned) [Ex-1.8, (S) or (R) N-(1-ethyl-5-methyl-1H-pyrazol-4-yl)-7-(2-methylpyrrolidin-1-yl)quinazolin-2-amine], with 16 nM.
Regarding `CC1(N2CCN(c3cc4nc(Nc5cnn(C6CC6)c5Cl)ncc4cc3Cl)CC2)COC1` [Ex-4.58, 6-chloro-N-(5-chloro-1-cyclopropyl-1H-pyrazol-4-yl)-7-[4-(3-methyloxetan-3-yl)piperazin-1-yl]quinazolin-2-amine], the IC50 was 2.32 nM.
For `Cc1cc2cnc(Nc3cnn(C4CC4)c3Cl)nc2cc1N1CCC(C)(O)CC1` [Ex-3.55, 1-{2-[(5-chloro-1-cyclopropyl-1H-pyrazol-4-yl)amino]-6-methylquinazolin-7-yl}-4-methylpiperidin-4-ol], the IC50 was 12.1 nM.
With `CCn1ncc(Nc2ncc3ccc(N4CCC4C)cc3n2)c1C` (single isomer, unassigned) [Ex-1.11, (S) or (R) N-(1-ethyl-5-methyl-1H-pyrazol-4-yl)-7-(2-methylazetidin-1-yl)quinazolin-2-amine] the figure was 33.2 nM.
For `Cc1nn(C2CC3(C2)CN(C2COC2)C3)cc1Nc1ncc2ccc(N3C(=O)C4CCC3C4)cc2n1` (single isomer, unassigned) [Ex-8.6, (1R,4S) or (1S,4R)-2-[2-({3-methyl-1-[2-(oxetan-3-yl)-2-azaspiro[3.3]heptan-6-yl]-1H-pyrazol-4-yl}amino)quinazolin-7-yl]-2-azabicyclo[2.2.1]heptan-3-one], the IC50 is 4.86 nM.
Take `C[C@H]1CN(c2cc3nc(Nc4cnn(C5(C)CC5)c4Cl)ncc3cc2Cl)CCN1C1COC1` [Ex-4.41, 6-chloro-N-[5-chloro-1-(1-methylcyclopropyl)-1H-pyrazol-4-yl]-7-[(3S)-3-methyl-4-(oxetan-3-yl)piperazin-1-yl]quinazolin-2-amine]: the IC50 is 1.91 nM.
Regarding `N#CCCN1CCN(c2cc3nc(Nc4cnn(C5CC5)c4Cl)ncc3cc2Cl)CC1` [Ex-1.29, 3-(4-{6-chloro-2-[(5-chloro-1-cyclopropyl-1H-pyrazol-4-yl)amino]quinazolin-7-yl}piperazin-1-yl)propanenitrile], the IC50 is 2.78 nM.
Then `Cc1c(Nc2ncc3cc(Cl)c(N4CCN(C5(C)COCC5O)CC4)cc3n2)cnn1C` (single isomer, unassigned) [Ex-3.37, (3R,4R) or (3S,4S) 4-(4-{6-chloro-2-[(1,5-dimethyl-1H-pyrazol-4-yl)amino]quinazolin-7-yl}piperazin-1-yl)-4-methyloxolan-3-ol], with 29.9 nM; and `CC(C)(O)Cn1ncc(Nc2ncc3cc(Cl)c(N4CCC(O)CC4)cc3n2)c1Cl` [Ex-3.11, 1-(6-chloro-2-{[5-chloro-1-(2-hydroxy-2-methylpropyl)-1H-pyrazol-4-yl]amino}quinazolin-7-yl)piperidin-4-ol], with 0.488 nM; and `Cc1c(Nc2ncc3cc(Cl)c(N4CCC(C)(O)C(C)C4)cc3n2)cnn1C1CC1` (single isomer, unassigned) [Ex-3.47, (3R,4R) or (3S,4S) or (3R,4S) or (3S,4R) 1-{6-chloro-2-[(1-cyclopropyl-5-methyl-1H-pyrazol-4-yl)amino]quinazolin-7-yl}-3,4-dimethylpiperidin-4-ol], with 10.2 nM.
`Cc1cc2cnc(Nc3cnn(C4(C)CC4)c3Cl)nc2cc1N1CCN(C2(C)COC2)CC1` [Ex-5.9, N-[5-chloro-1-(1-methylcyclopropyl)-1H-pyrazol-4-yl]-6-methyl-7-[4-(3-methyloxetan-3-yl)piperazin-1-yl]quinazolin-2-amine]: the IC50 was 0.64 nM.
